Target: S. aureus GyrB ATPase (Staphylococcus aureus, UniProt P0A0K8)
Test: S. aureus GyrB ATPase inhibition (ammonium molybdate/malachite green phosphate detection)
Type: biochemical
Conditions: for inhibition at 1 µM: compound concentration of 1 μM
Outline: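 E. coli GyrA and S. aureus GyrB (250 pM each) with sheared salmon sperm DNA and 250 μM ATP, pH 7.5 Hepes buffer. Released phosphate detected by malachite green/ammonium molybdate at 650 nm; percent inhibition at 1 μM compound unless noted, normalized to 2% DMSO (0%) and EDTA (100%) controls.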

S. aureus GyrB ATPase, sequence (P0AES4 whole entry): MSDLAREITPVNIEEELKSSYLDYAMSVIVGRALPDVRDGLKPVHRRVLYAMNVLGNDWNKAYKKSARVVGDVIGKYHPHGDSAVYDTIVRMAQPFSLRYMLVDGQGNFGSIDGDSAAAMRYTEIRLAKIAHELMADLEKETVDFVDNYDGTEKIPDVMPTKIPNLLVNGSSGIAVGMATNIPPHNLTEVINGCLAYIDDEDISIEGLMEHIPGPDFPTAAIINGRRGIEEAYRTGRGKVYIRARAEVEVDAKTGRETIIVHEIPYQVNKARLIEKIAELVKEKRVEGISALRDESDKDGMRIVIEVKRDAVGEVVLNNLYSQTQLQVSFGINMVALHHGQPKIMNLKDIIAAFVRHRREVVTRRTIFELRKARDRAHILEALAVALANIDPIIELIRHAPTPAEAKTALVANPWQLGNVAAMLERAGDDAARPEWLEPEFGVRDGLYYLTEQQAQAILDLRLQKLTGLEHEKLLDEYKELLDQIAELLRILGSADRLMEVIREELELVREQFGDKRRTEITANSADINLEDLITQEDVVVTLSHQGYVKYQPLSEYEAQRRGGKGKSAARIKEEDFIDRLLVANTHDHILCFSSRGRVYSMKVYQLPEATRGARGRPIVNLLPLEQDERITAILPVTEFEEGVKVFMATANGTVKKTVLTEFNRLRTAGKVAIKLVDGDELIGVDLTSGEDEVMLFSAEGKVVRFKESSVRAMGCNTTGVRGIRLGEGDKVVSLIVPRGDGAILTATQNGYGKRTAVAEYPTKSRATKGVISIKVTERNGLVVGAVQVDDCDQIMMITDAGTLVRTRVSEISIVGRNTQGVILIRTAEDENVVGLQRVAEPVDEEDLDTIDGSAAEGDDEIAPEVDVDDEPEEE
S. aureus GyrB ATPase, sequence (P0A0K8 whole entry): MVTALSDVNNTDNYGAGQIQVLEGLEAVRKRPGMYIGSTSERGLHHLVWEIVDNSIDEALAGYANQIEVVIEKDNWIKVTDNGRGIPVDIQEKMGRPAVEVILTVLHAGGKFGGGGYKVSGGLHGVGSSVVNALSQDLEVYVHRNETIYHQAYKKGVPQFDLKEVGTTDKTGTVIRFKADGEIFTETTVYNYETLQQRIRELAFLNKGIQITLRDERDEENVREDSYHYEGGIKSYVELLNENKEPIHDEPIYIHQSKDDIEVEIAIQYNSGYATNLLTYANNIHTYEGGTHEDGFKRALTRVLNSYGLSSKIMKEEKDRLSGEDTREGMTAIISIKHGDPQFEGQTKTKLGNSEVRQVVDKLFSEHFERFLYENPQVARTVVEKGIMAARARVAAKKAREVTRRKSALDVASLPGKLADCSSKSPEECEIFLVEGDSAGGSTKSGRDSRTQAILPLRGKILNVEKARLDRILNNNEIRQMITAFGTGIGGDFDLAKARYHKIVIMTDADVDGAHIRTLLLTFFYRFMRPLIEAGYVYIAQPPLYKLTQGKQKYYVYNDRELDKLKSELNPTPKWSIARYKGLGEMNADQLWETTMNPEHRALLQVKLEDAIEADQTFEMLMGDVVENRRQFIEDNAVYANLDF

SMILES: COC(=O)c1sc(N2CC[C@@H](NC(=O)c3[nH]c(C)c(Cl)c3Cl)[C@@H](F)C2)nc1-c1csc(N(C)C)n1 [Example 76]
- inhibition at 1 µM: 99.2%

SMILES: Cc1cnc(-c2nc(N3CC[C@@H](NC(=O)c4[nH]c(C)c(Cl)c4Cl)[C@@H](F)C3)sc2C(=O)O)cn1 [Example 118, 2-((3S,4R)-4-(3,4-dichloro-5-methyl-1H-pyrrole-2-carboxamido)-3-fluoropiperidin-1-yl)-4-(5-methylpyrazin-2-yl)thiazole-5-carboxylic acid]
- inhibition at 1 µM: 92.1%

SMILES: COC(=O)c1sc(N2CC[C@@H](NC(=O)c3[nH]c(C)c(Cl)c3C#N)[C@@H](OC)C2)nc1-c1ncnn1C [Example 104, methyl 2-((3S,4R)-4-(4-chloro-3-cyano-5-methyl-1H-pyrrole-2-carboxamido)-3-methoxypiperidin-1-yl)-4-(1-methyl-1H-1,2,4-triazol-5-yl)thiazole-5-carboxylate]
- inhibition at 1 µM: 86.4%

SMILES: CO[C@H]1CN(c2nc(-c3ncnn3C)c(C(=O)O)s2)CC[C@H]1NC(=O)c1[nH]c(C)c(Cl)c1Cl [Example 27, 2-((3S,4R)-4-{[(3,4-Dichloro-5-methyl-1H-pyrrol-2-yl)carbonyl]amino}-3-methoxypiperidin-1-yl)-4-(1-methyl-1H-1,2,4-triazol-5-yl)-1,3-thiazole-5-carboxylic acid]
- inhibition at 1 µM: 99.9%

SMILES: CCOC(=O)c1sc(N2CC[C@@H](NC(=O)c3[nH]c(C)c(Cl)c3Cl)[C@@H](OC)C2)nc1-c1nc(C)no1 [Example 84]
- inhibition at 1 µM: 103%

SMILES: COC(=O)c1sc(N2CC[C@@H](NC(=O)c3[nH]c(C)c(Cl)c3Cl)[C@@H](F)C2)nc1-c1nccs1 [Example 47]
- inhibition at 1 µM: 101%

SMILES: CO[C@H]1CN(c2nc(-c3ncnn3C)c(C(=O)O)s2)CC[C@H]1NC(=O)c1[nH]c(C)c(C#N)c1Cl [Example 29, 2-((3S,4R)-4-{[(3-Chloro-4-cyano-5-methyl-1H-pyrrol-2-yl)carbonyl]amino}-3-methoxypiperidin-1-yl)-4-(1-methyl-1H-1,2,4-triazol-5-yl)-1,3-thiazole-5-carboxylic acid]
- inhibition at 1 µM: 101%

SMILES: CCOC(=O)c1sc(N2CC[C@@H](NC(=O)c3[nH]c(C)c(Cl)c3C#N)[C@@H](OC)C2)nc1-c1ncccc1F [Example 106, ethyl 2-((3S,4R)-4-(4-chloro-3-cyano-5-methyl-1H-pyrrole-2-carboxamido)-3-methoxypiperidin-1-yl)-4-(3-fluoropyridin-2-yl)thiazole-5-carboxylate]
- inhibition at 1 µM: 101%

SMILES: COCCn1ccnc1-c1nc(N2CC[C@@H](NC(=O)c3[nH]c(C)c(Cl)c3Cl)[C@@H](F)C2)sc1C(=O)OC [Example 65]
- inhibition at 1 µM: 98.3%

SMILES: COC(=O)c1sc(N2CC[C@@H](NC(=O)c3[nH]c(C)c(Cl)c3Cl)[C@@H](OC)C2)nc1-c1ccn[nH]1 [Example 62]
- inhibition at 1 µM: 99.9%

SMILES: CO[C@H]1CN(c2nc(-c3ncccn3)c(C(=O)O)s2)CC[C@H]1NC(=O)c1[nH]c(C)c(Cl)c1C#N [Example 122, 2-((3S,4R)-4-(4-chloro-3-cyano-5-methyl-1H-pyrrole-2-carboxamido)-3-methoxypiperidin-1-yl)-4-(pyrimidin-2-yl)thiazole-5-carboxylic acid]
- inhibition at 1 µM: 103%

SMILES: COC(=O)c1sc(N2CC[C@@H](NC(=O)c3[nH]c(C)c(Cl)c3Cl)[C@@H](F)C2)nc1-c1ccn[nH]1 [Example 63]
- inhibition at 1 µM: 99.8%

SMILES: CO[C@H]1CN(c2nc(-c3csc(N(C)C)n3)c(C(=O)O)s2)CC[C@H]1NC(=O)c1[nH]c(C)c(Cl)c1Cl [Example 35, 2-((3S,4R)-4-{[(3,4-Dichloro-5-methyl-1H-pyrrol-2-yl)carbonyl]amino}-3-methoxypiperidin-1-yl)-2′-(dimethylamino)-4,4′-bi-1,3-thiazole-5-carboxylic acid]
- inhibition at 1 µM: 96.6%

SMILES: CO[C@H]1CN(c2nc(-c3ncnn3C)c(C(=O)O)s2)CC[C@H]1NC(=O)c1cc(C#N)c(C)[nH]1 [Example 31, 2-((3S,4R)-4-{[(4-Cyano-5-methyl-1H-pyrrol-2-yl)carbonyl]amino}-3-methoxypiperidin-1-yl)-4-(1-methyl-1H-1,2,4-triazol-5-yl)-1,3-thiazole-5-carboxylic acid]
- inhibition at 1 µM: 99.3%

SMILES: Cc1[nH]c(C(=O)N[C@@H]2CCN(c3nc(-c4ncccc4F)c(C(=O)O)s3)C[C@@H]2OCc2ccccc2)cc1Cl [Example 149, 2-[(3S,4R)-3-(benzyloxy)-4-{[(4-chloro-5-methyl-1H-pyrrol-2-yl)carbonyl]amino}piperidin-1-yl]-4-(3-fluoropyridin-2-yl)-1,3-thiazole-5-carboxylic acid]
- inhibition at 1 µM: 103%

SMILES: CCOC(=O)c1sc(N2CC[C@@H](NC(=O)c3[nH]c(C)c(Cl)c3Cl)[C@@H](OC)C2)nc1-c1cnccn1 [Example 53]
- inhibition at 1 µM: 100%

SMILES: CCOC(=O)c1sc(N2CC[C@@H](NC(=O)c3[nH]c(C)c(Cl)c3Cl)[C@@H](OC)C2)nc1-c1nnc(C)o1 [Example 85, Ethyl 2-((3S,4R)-4-{[(3,4-dichloro-5-methyl-1H-pyrrol-2-yl)carbonyl]amino}-3-methoxypiperidin-1-yl)-4-(5-methyl-1,3,4-oxadiazol-2-yl)-1,3-thiazole-5-carboxylate]
- inhibition at 1 µM: 102%

SMILES: CCOC(=O)c1sc(N2CC[C@@H](NC(=O)c3[nH]c(C)c(Cl)c3Cl)[C@@H](F)C2)nc1-c1cn(C)cn1 [Example 78]
- inhibition at 1 µM: 101%

SMILES: CO[C@H]1CN(c2nc(-c3nnc(C)o3)c(C(=O)O)s2)CC[C@H]1NC(=O)c1[nH]c(C)c(Cl)c1Cl [Example 90, 2-((3S,4R)-4-{[(3,4-Dichloro-5-methyl-1H-pyrrol-2-yl)carbonyl]amino}-3-methoxypiperidin-1-yl)-4-(5-methyl-1,3,4-oxadiazol-2-yl)-1,3-thiazole-5-carboxylic acid]
- inhibition at 1 µM: 101%

SMILES: CCCO[C@H]1CN(c2nc(-c3cnccn3)c(C(=O)O)s2)CC[C@H]1NC(=O)c1[nH]c(C)c(Cl)c1Cl [Example 161, 2-[(3S,4R)-4-{[(3,4-dichloro-5-methyl-1H-pyrrol-2-yl)carbonyl]amino}-3-propoxypiperidin-1-yl]-4-(pyrazin-2-yl)-1,3-thiazole-5-carboxylic acid]
- inhibition at 5 µM (compound tested at a concentration of 5 μM): 14%

SMILES: CCOC(=O)c1sc(N2CC[C@@H](NC(=O)c3[nH]c(C)c(Cl)c3C#N)[C@@H](OC)C2)nc1-c1ncccn1 [Example 105, ethyl 2-((3S,4R)-4-(4-chloro-3-cyano-5-methyl-1H-pyrrole-2-carboxamido)-3-methoxypiperidin-1-yl)-4-(pyrimidin-2-yl)thiazole-5-carboxylate]
- inhibition at 1 µM: 103%

SMILES: Cc1[nH]c(C(=O)N[C@@H]2CCN(c3nc(-c4csc(N)n4)c(C(=O)O)s3)C[C@@H]2F)c(Cl)c1Cl [Example 36, 2′-Amino-2-((3S,4R)-4-{[(3,4-dichloro-5-methyl-1H-pyrrol-2-yl)carbonyl]amino}-3-fluoropiperidin-1-yl)-4,4′-bi-1,3-thiazole-5-carboxylic acid]
- inhibition at 1 µM: 99.6%

SMILES: CCOC(=O)c1sc(N2CC[C@@H](NC(=O)c3[nH]c(C)c(Cl)c3C#N)[C@@H](OC)C2)nc1-c1cn(C)cn1 [Example 108, ethyl 2-((3S,4R)-4-(4-chloro-3-cyano-5-methyl-1H-pyrrole-2-carboxamido)-3-methoxypiperidin-1-yl)-4-(1-methyl-1H-imidazol-4-yl)thiazole-5-carboxylate]
- inhibition at 1 µM: 86.6%

SMILES: CCOC(=O)c1sc(N2CC[C@@H](NC(=O)c3[nH]c(C)c(Cl)c3Cl)[C@@H](OC)C2)nc1-c1nnco1 [Example 83]
- inhibition at 1 µM: 102%

SMILES: CNc1nc(-c2nc(N3CC[C@@H](NC(=O)c4[nH]c(C)c(Cl)c4Cl)[C@@H](OC)C3)sc2C(=O)OC)cs1 [Example 72]
- inhibition at 1 µM: 101%

SMILES: COCCn1ccnc1-c1nc(N2CC[C@@H](NC(=O)c3cc(Cl)c(C)[nH]3)[C@@H](OCc3ccccc3)C2)sc1C(=O)O [Example 148, 2-[(3S,4R)-3-(benzyloxy)-4-{[(4-chloro-5-methyl-1H-pyrrol-2-yl)carbonyl]amino}piperidin-1-yl]-4-[1-(2-methoxyethyl)-1H-imidazol-2-yl]-1,3-thiazole-5-carboxylic acid]
- inhibition at 1 µM: 99.9%

SMILES: COC(=O)c1sc(N2CC[C@@H](NC(=O)c3[nH]c(C)c(Cl)c3Cl)[C@@H](F)C2)nc1-c1ccno1 [Example 61]
- inhibition at 1 µM: 94.7%

SMILES: COC(=O)c1sc(N2CC[C@@H](NC(=O)c3[nH]c(C)c(Cl)c3Cl)[C@@H](OC)C2)nc1-c1ncc(C)nc1C [Example 93, methyl 2-((3S,4R)-4-(3,4-dichloro-5-methyl-1H-pyrrole-2-carboxamido)-3-methoxypiperidin-1-yl)-4-(3,5-dimethylpyrazin-2-yl)thiazole-5-carboxylate]
- inhibition at 1 µM: 99.3%

SMILES: CO[C@H]1CN(c2nc(-c3ncccc3F)c(C(=O)O)s2)CC[C@H]1NC(=O)c1[nH]c(C)c(Cl)c1C#N [Example 123, 2-((3S,4R)-4-(4-chloro-3-cyano-5-methyl-1H-pyrrole-2-carboxamido)-3-methoxypiperidin-1-yl)-4-(3-fluoropyridin-2-yl)thiazole-5-carboxylic acid]
- inhibition at 1 µM: 104%

SMILES: Cc1[nH]c(C(=O)N[C@@H]2CCN(c3nc(-c4cn(C)cn4)c(C(=O)O)s3)C[C@@H]2F)c(Cl)c1Cl [Example 41, 2-((3S,4R)-4-{[(3,4-Dichloro-5-methyl-1H-pyrrol-2-yl)carbonyl]amino}-3-fluoropiperidin-1-yl)-4-(1-methyl-1H-imidazol-4-yl)-1,3-thiazole-5-carboxylic acid]
- inhibition at 1 µM: 104%

SMILES: COC(=O)c1sc(N2CC[C@@H](NC(=O)c3[nH]c(C)c(Cl)c3Cl)[C@@H](OC)C2)nc1-c1nccs1 [Example 44]
- inhibition at 1 µM: 99.6%

SMILES: Cc1[nH]c(C(=O)N[C@@H]2CCN(c3nc(-c4ncnn4C)c(C(=O)O)s3)C[C@@H]2OCc2ccccc2)c(Cl)c1Cl [Example 141, 2-[(3S,4R)-3-(benzyloxy)-4-{[(3,4-dichloro-5-methyl-1H-pyrrol-2-yl)carbonyl]amino}piperidin-1-yl]-4-(1-methyl-1H-1,2,4-triazol-5-yl)-1,3-thiazole-5-carboxylic acid]
- inhibition at 1 µM: 116%

SMILES: CCOC(=O)c1sc(N2CC[C@@H](NC(=O)c3[nH]c(C)c(Cl)c3Cl)[C@@H](OC)C2)nc1-c1nc(OC)cc(OC)n1 [Example 52]
- inhibition at 1 µM: 101%
